Where two headings read alike, the source gives them in different places.

The test system of series [1] is HBV wild type (U95551). The series is described as follows: Cross-resistance in transfected HepG2 cells, wild type. It is filed as cell-based, Hepatitis B virus.
Series [2] has as its system HBV rtM204I. The experiment in a line: microbe, parasite or virus in culture. The series is classed as cell-based. The following applies: Hepatitis B virus, HepG2.
Series [3] deals with HBV rtV173L+M204I. The experiment in a line: microbe, parasite or virus in culture. The following applies: Hepatitis B virus, HepG2. The series is classed as cell-based.
Series [4] deals with HBV rtM204V. The series is described as follows: microbe, parasite or virus in culture. The series is classed as cell-based. The following applies: Hepatitis B virus, HepG2.
The subject of series [5] is HBV rtL180M+M204V. The series is described as follows: microbe, parasite or virus in culture. The series is classed as cell-based. The following applies: Hepatitis B virus, HepG2.
Series [6] concerns HBV rtA181V. The series is described as follows: microbe, parasite or virus in culture. It is filed as cell-based. The settings on record: Hepatitis B virus, HepG2.
Series [7] relates to HBV rtN236T. The series is described as follows: microbe, parasite or virus in culture. The series is classed as cell-based. The settings on record: Hepatitis B virus, HepG2.
The test system of series [8] is HBV. The experiment in a line: HBV combination studies with ATI-2173 in primary human hepatocytes (MacSynergy). It is filed as cell-based, Hepatitis B virus. The following applies: compound combined with ATI-2173, primary human hepatocytes; for Combination index: MacSynergy.
The test system of series [9] is clevudine-resistant mutants. The settings on record: mutants from viral break-through patients, predominantly M204I; cited from earlier work.
The test system of series [10] is HBV genotype D. The series is described as follows: Anti-HBV activity in HepG2.2.15 cells (extracellular HBV DNA by qPCR). It is filed as cell-based. The settings on record: Hepatitis B virus. On the procedure:
ATI-2173 was obtained from WuXi SynTheAll. Entecavir (positive control) was obtained from Shanghai Titan Scientific Co., Ltd. HepG2.2.15 cells (derived from human hepatoblastoma cell-like HepG2) contain four 5′ to 3′ tandem copies of the HBV genotype D and were provided by WuXi. HepG2.2.15 cells were cultured in Dulbecco’s modified Eagle medium (DMEM)/F12 (Invitrogen, 11330032) supplemented with 2% fetal bovine serum (FBS) (HyClone, SV30087.03), 1% L-glutamine, 1% minimum essential medium (MEM) nonessential amino acid solution (NEAA), and 1% penicillin-streptomycin solution. QIAamp 96 DNA blood kit was purchased from Qiagen (51162). […] Culture medium containing ATI-2173 or entecavir (serially diluted) was added to cells on day 2 and refreshed on day 5. ATI-2173 dilutions were: 0.0006, 0.0024, 0.0098, 0.0391, 0.1563, 0.6250, 2.5000, and 10.0000 μM. On day 8, cell culture supernatants were collected and DNA was extracted by the QIAamp 96 DNA blood kit. qPCR was run at 95°C for 10 min, then cycled at 95°C for 15 s, 60°C for 1 min, for a total of 40 cycles. HBV DNA content in the samples was calculated according to the standard curve and CT (cycle threshold of qPCR) values of a sample. Data were normalized for maximum and minimum copy numbers.

For series [11], the system named is HBV genotypes A, B, C, D, E, F, G, and H. The experiment in a line: microbe, parasite or virus in culture. The series is classed as cell-based. The settings on record: Hepatitis B virus, HepG2, read-out: IC50s, inhibition of HBV DNA across genotypes.
For series [12], the system named is HBV rtS202G+M204I+M250V. The experiment in a line: microbe, parasite or virus in culture. The series is classed as cell-based. The settings on record: Hepatitis B virus, HepG2.
Series [13] deals with HBV rtS202G+M204I. The experiment in a line: microbe, parasite or virus in culture. It is filed as cell-based. The settings on record: Hepatitis B virus, HepG2.
Series [14] can be described thus: Cell viability (CC50) in HepG2.2.15 cells. The settings on record: human.
Series [15] relates to HBV. Also on record: method as in PMID 8834884, PMID 7786007, PMID 20516559. The settings on record: cell-based in vitro systems; read-out: Anti-HBV EC50; cited from earlier work.
Series [16] concerns HBV DNA. Further details: method as in PMID 15239097. The settings on record: patients, for 6 months following treatment; cited from earlier work.
A short description of series [17]: in vitro. The settings on record: human.
Protocol: HK-2 human kidney cells were obtained from ATCC (Manassas, VA) and cultured in Gibco Keratinocyte serum-free medium (Thermo Fisher Scientific, Waltham, MA) supplemented with 10% FBS (Peak Serum, Wellington, CO). Human skeletal muscle cells were obtained from Lonza (Walkersville, MD) and cultured in SkGM-2 skeletal muscle cell growth medium-2 (Lonza). Both HK-2 and skeletal muscle cells were cultured humidified at 37°C and 5% CO2. Cryopreserved human primary hepatocytes and medium were received from Lonza. Cryopreserved iCell cardiomyocytes and cardiomyocyte medium were purchased from Stem Cell Technologies (Vancouver, BC, Canada). Cryopreserved human bone marrow mononuclear cells were purchased from Lonza with HemaTox Myeloid medium purchased from [sequence] […] All cryopreserved cells (human primary hepatocytes, iCell cardiomyocytes, and human bone marrow mononuclear cells) were stored in vapor phase liquid nitrogen until the day of plating. […] Serial dilutions of compounds in DMSO were as follows: 100, 10, 1, 0.1, 0.01, 0.001, 0.0001, and 0.00001 μM (final concentration of DMSO in medium was 0.5%).
HK-2 and skeletal muscle cells were seeded into 96-well plates at 5,000 cells/well and incubated overnight at 37°C and 5% CO2. Human hepatocytes were thawed, diluted in hepatocyte plating medium (Lonza) and seeded into a 96-well, collagen-coated plates at 2.5 × 10^4 cells/well. Hepatocytes were incubated for 6 h at 37°C in 5% CO2, then the medium was aspirated and replaced with hepatocyte culture medium at 50 μl/well, and finally incubated overnight. The iCell cardiomyocytes were thawed, suspended in iCell thawing/plating medium, and plated at 4 × 10^4 cells/well in a gelatin-coated 96-well plate. iCells were incubated for 2 days at 37°C in 7% CO2. […]
Following incubation, cells were dosed and incubated for 72 h at 37°C and 5% CO2. Following incubation, the endpoint cell viability CellTiter-Glo 2.0 assay (Promega, San Luis Obispo, CA) was performed and luminescence data collected on a Synergy 4 plate reader (Biotek, Winooski, VT). […]
For series [18] the following is noted: in vivo, po; cited from earlier work.
For series [19] the following is noted: human, in vivo; cited from earlier work.
The subject of series [20] is HBV coreP25A. The series is described as follows: microbe, parasite or virus in culture. It is filed as cell-based, Hepatitis B virus. The following applies: HepG2 cells, mutation coreP25A; read-out: EC50.
The subject of series [21] is HBV coreT33N. The series is described as follows: microbe, parasite or virus in culture. It is filed as cell-based, Hepatitis B virus. The settings on record: HepG2 cells, mutation coreT33N; read-out: EC50.

With `Nc1ccn([C@@H]2CS[C@H](CO)O2)c(=O)n1` [Lamivudine, reference compound], the half-maximal effective concentration (EC50) in series [1] (Hepatitis B virus) was 0.096 µM; in [2] it was above 10 µM; in series [3], above 10 µM; in series [4], 3.51 µM; in series [5] it was above 10 µM; in series [6], 0.21 µM. This compound also showed a half-maximal effective concentration (EC50) in [7] of 0.13 µM. Besides, the Combination effect entry in series [8] is listed as “Additive (A combination index of <25 is considered additive)”. In addition, in series [8], the Combination index is reported as −5.86.
Regarding `Nc1ncnc2c1ncn2CCOCP(=O)(O)O` [Adefovir], in series [8], the Combination effect result is recorded as “Minor synergism (25 to 50 is considered minor synergism)” and the Combination index is 32.85.
On to `C[C@H](Cn1cnc2c(N)ncnc21)OCP(=O)(O)O` [Tenofovir], for which, in [8], the Combination effect result is “Additive (A combination index of <25 is considered additive)” and the Combination index came to 8.56. Further, the “Activity against clevudine-resistant mutants” value in [9] is on record as “active”.
Consider `C=C1[C@H](CO)[C@@H](O)C[C@@H]1n1cnc2c(=O)[nH]c(N)nc21` [Entecavir], for which the half-maximal effective concentration (EC50) in series [10] (HepG2.2.15 cells, control compound, read-out: EC50, extracellular HBV DNA) stood at 0.0006 µM; in series [1] (Hepatitis B virus), 0.003 µM; in [12], 21 µM; in series [13], 9.96 µM. The IC50 in series [11] fell in the range of 0.0005 to 0.0022 µM. Further, the Combination effect entry in series [8] is reported as “Minor synergism (25 to 50 is considered minor synergism)”. In addition, in [8], the Combination index came out at 38.62. The “Activity against clevudine-resistant mutants” value in [9] is given as “not”. Moreover, in series [14], the CC50 is above 0.05 µM.
Consider `Cc1cn([C@H]2O[C@@H](CO)[C@H](O)[C@H]2F)c(=O)[nH]c1=O` [Clevudine, 1-(2-fluoro-5-methyl-β,L-arabinofuranosyl) uracil], for which the EC50 in series [10] (HepG2.2.15, read-out: EC50, extracellular HBV DNA) was 0.1 µM; in series [15], around 0.1 µM. Besides, the “Sustained viral suppression, reduction from baseline” value in series [16] is given as around 2 log10. Also, the CC50 at 72 h in [17] was above 100 µM. Besides, in series [18], the “Plasma concentrations at effective doses” value is “up to 1 μM”. Further, the “Myopathy on long-term exposure” value in series [19] is recorded as “reversible proximal myopathy symptoms emerged”. In [14] (HepG2.2.15 cells), the CC50 was above 10 µM.
`CCOC(=O)C1=C(CN2CCOCC2)NC(c2nccs2)=NC1c1ccc(F)cc1Br` (stereo not shown) [GLS4]: the results for the EC50 in series [1], in series [20] and in [21] were 0.015 µM, 0.295 µM and 3.08 µM, respectively. Moreover, the Combination effect entry in series [8] was “Additive (A combination index of <25 is considered additive)”. Moreover, the Combination index in [8] is listed as 7.59.
Take `COc1ccccc1/C(Br)=C(\NC(=O)c1ccc([N+](=O)[O-])cc1)C(=O)N1CCCCC1` [AT-130]: the values for the EC50 in series [1] and in series [21] were 0.246 µM and above 10 µM, respectively.

The values above are taken from PMC7449170, “ATI-2173, a Novel Liver-Targeted Non-Chain-Terminating Nucleotide for Hepatitis B Virus Cure Regimens” (Antimicrobial Agents and Chemotherapy, 2020).
